Assay results taken from patent US7592320B2, “Cancer gene therapy based on translational control of a suicide gene” (priority 2001, dated 2009).
Read-outs that look alike come from different tables or passages of the source.

Experiments:
[1] = test system: MM3MG; experiment: cells; conditions: for EC50: Mus musculus, MM3MG, 336 h, GCV 14 days
Protocol: (§1) Each vector was then stably transfected into either MM3MG cells (ATCC No.CRL6376, a normal mouse mammary line) or MM2MT cells (ATCC No. CRL6373, a mouse mammary carcinoma line). Unless otherwise stated, all cell lines were purchased from the American Type Culture Collection (“ATCC”), Manassas, Va. To overexpress eIF4E (referred to as eIF4E-S, for “sense”), the eIF4E cDNA was cloned into KpnI and NotI sites of the pREP7 episomal vector (Invitrogen, Carlsbad, Calif.). To reduce the eIF4E expression (referred to as eIF4E-AS, for “antisense”), an antisense eIF4E construct was subcloned into the pREP7 vector as described in A. De Benedetti et al., “Expression of antisense RNA against initiation factor eIF-4E mRNA in HeLa cells results in lengthened cell division times, diminished translation rates, and reduced levels of both eIF-4E and the P220 component of eIF-4F,” Mol. Cell. Biol., vol. 11, pp. 5435-5445 (1991).
(§2) All transfections were performed with the GenePORTER reagent (Gene Therapy Systems, San Diego, Calif.). Stable cell lines were obtained by selection with G418 for the BK constructs, and Hygromycin B for the pREP7 vectors.

[2] = test system: MM2MT; experiment: cells; conditions: Mus musculus, 336 h, GCV 14 days
Protocol: as §1, §2

[3] = test system: MCF-10A; conditions: GCV 14 days
[4] = test system: MDA-435S; conditions: GCV 14 days
[5] = test system: MCF7; conditions: GCV 14 days
[6] = test system: MDA-231; conditions: for ED50: GCV 14 days
[7] = test system: MM2MT tumors; experiment: Tumor ablation, MM2MT mammary fat pad tumors (about 40 mm^3) in athymic mice; assay type: in vivo, BALB/c athymic nu/nu mice; conditions: GCV administered alone (data not shown)
Protocol: 10^6 MM2MT cells were suspended in 0.1 ml serum and antibiotic-free DMEM medium and injected subcutaneously into the mammary fat pad. Tumor latency was determined as the time necessary for the tumors to grow to 0.5 cm (largest diameter). Tumor doubling times were determined by daily measuring the smallest (d) and the largest (D) diameters with calipers, and estimating the volume using the formula, V=D×d^2×0.52. The reported numbers are the mean and standard deviation of the tumor volumes for each group.
When the tumor volumes were approximately 40 mm^3, the mice were randomly separated into two groups, and either the BK-TK or the BK-UTK vectors were injected as a liposomal complex near the tumor. To make the liposomal complex for transfection of primary tumors, 10 μg of endotoxin-free purified (QIAGEN, Inc., Valencia, Calif.) plasmid DNA was diluted in 50 μl medium without serum or antibiotics. In a separate tube, 50 μl of GenePORTER reagent (Gene Therapy Systems, San Diego, Calif.) was mixed with 50 μl serum and antibiotic-free medium. The two tubes were then combined, briefly vortexed, and allowed to incubate at room temperature for 20 minutes, after which the resulting liposome complex was injected between the tumor and the skin of the mouse.
One of the 6 mice in each group had no palpable tumor remaining at the end of the 10-day treatment.

EC50 ([1]; read-out: ED50, MM3MG-TK cells): 0.3 µM
EC50 ([1]; read-out: ED50, MM3MG-UTK cells): 75 µM
EC50 ([1]; read-out: ED50, MM3MG-UTK/4E-AS cells (so in the source)): 0.9 µM
EC50 ([2]; read-out: ED50, MM2MT-TK cells): 0.095 µM
EC50 ([2]; read-out: ED50, MM2MT-TK/4E-AS cells): 0.15 µM
EC50 ([2]; read-out: ED50, MM2MT-UTK cells): 0.5 µM
EC50 ([2]; read-out: ED50, MM2MT-UTK/4E-AS cells): 55 µM
Structure (SMILES): Nc1nc(O)c2ncn(COC(CO)CO)c2n1 [GCV, Ganciclovir]
GCV concentration to which cells were sensitive (dose-response curve) ([1]; MM3MG-TK (normal) cells, 14 days): 0.1 µM
EC50 ([1]; read-out: ED50, MM3MG untransfected cells, concentration that kills 50% of the cells): 200 µM
GCV concentration at which cells were non-specifically inhibited ([1]; untransfected MM3MG cells, 14 days): 200 µM
EC50 ([2]; read-out: ED50, MM2MT untransfected cells): 95 µM
ED50 ([3]; MCF-10A untransfected cells): 6000 µM
ED50 ([3]; MCF-10A-TK cells): 300 µM
ED50 ([3]; MCF-10A-UTK cells): 5500 µM
ED50 ([4]; MDA-435S untransfected cells): 350 µM
ED50 ([4]; MDA-435S-TK cells): 15 µM
ED50 ([4]; MDA-435S-UTK cells): 15 µM
ED50 ([5]; MCF7-TK cells): 20 µM
ED50 ([5]; MCF7-UTK cells): 10 µM
ED50 ([5]; MCF7 untransfected cells): 6000 µM
GCV concentration of non-specific toxicity ([6]; MDA-231-TK and MDA-231-UTK cells, otherwise insensitive to GCV): 5 mM
ED50 ([6]; MDA-231-TK cells): 4000 µM
ED50 ([6]; MDA-231-UTK cells): 4000 µM
ED50 ([6]; MDA-231 untransfected cells): 6000 µM
effect on the growth of MM2MT tumors [7]: no effect
